Experimental data reported in patent US20050069947A1, “Antibodies specific for nanotubes and related methods and compositions” (priority 2001, published 2005).
Each block holds one compound with its values, some of them ahead of it.

What was measured:
[1] = system: anti-fullerene antibodies; assay: ELISA inhibition of antibody binding to 1-RSA; parameters: species or system mice; details: for reactivity with polyclonal antibodies raised to C60: method not stated at the place; for inhibition of antibody binding to 1-RSA (ELISA inhibition): serum of mice immunized with 1-TG, plates coated with 1-RSA
Protocol: After a total of three immunizations at 3-week intervals, confirmation of an immune response was determined by direct ELISA in which polystyrene plates (Corning) were coated with the 1-RSA conjugate (0.5 mg/ml in 0.1 M NaHCO3, pH 9), and binding of preimmune and immune sera were determined by standard procedures. Development was with horseradish peroxidase-labeled goat anti-mouse IgG (Sigma), which tested negative for crossreaction with an IgM preparation. The substrate used was o-phenylenediamine.
(§1) Specificity of the response was determined by two procedures: double diffusion in agar (22) and competitive inhibition, as determined by ELISA using RSA and BSA conjugates of the fullerenes, as well as the oligo lysine derivatives. The fullerenes themselves were not soluble enough in aqueous solutions.
The adenosine conjugate had been synthesized using the same strategy used for the fullerenes, i.e., linkage to the epsilon amino groups of the lysines via an N-hydroxysuccinimide ester derivative.
After a total of 3 immunizations at 3 week intervals, confirmation of an immune response was determined by direct ELISA in which polystyrene plates (Corning) were coated with 1-RSA conjugate (0.5 mg/ml in O.1 N NaHCO3, pH 9) and binding of preimmune and immune sera determined by standard procedures. Development was with horseradish peroxide-labeled goat anti-mouse IgG (Sigma, St. Louis, MO) which tested negative for cross reaction with an IgM preparation. The substrate used was o-phenylenediamine.
(§2) Specificity of the response was determined by two procedures: double diffusion in agar and competitive inhibition, as determined by ELISA using RSA and BSA conjugates of the fullerenes, as well as the oligo lysine derivatives. The fullerenes themselves were not soluble enough in aqueous solutions.

[2] = acute and subchronic topical applications; cited from earlier work
[3] = Gamma-camera imaging biodistribution study; format: in vivo, Sprague-Dawley rats
Protocol: The biodistribution in mice of hydroxylated lanthanide-C82 encapsulates is under current investigation. The results presented here are regarded as preliminary as the sample is still small. Studies continue under a NIH Phase I grant. The neutron irradiated samples, along with a […] control sample, were used to perform a γ-camera imaging study on four 300 g Sprague-Dawley rats. Two rats were injected intraperitoneally (IP) with 54 and 18 μCi of ^166Ho activity from samples containing irradiated Ho-metallofullerois. Two control studies were performed by […] of approximately 660 μCi of ^166Ho^3+ in a 1% sodium citrate buffer. The anesthetized rats were scanned side-by-side on a single stage with a γ-camera starting 1 hour after injection and periodically thereafter over the ensuing 48 hours.

[4] = system: anti-fullerene antibodies; assay: Double diffusion in agar; format: binding, mice
Protocol: as §1, §2

Compound: c12c3c4c5c1c1c6c7c2c2c8c3c3c9c4c4c%10c5c5c1c1c6c6c%11c%12c%13c%14c%15c%16c%17c%14c%14c%18c%13c%11c1c1c5c%10c5c(c%14c%10c%17c%11c%13c%16c%14c%16c%15c%12c%12c%16c(c2c7c%126)c2c8c3c(c%13c%142)c2c9c4c5c%10c%112)c%181 [Compound C70]
reactivity with polyclonal antibodies raised to C60 [1]: non-reactive
reactivity with polyclonal antibodies raised to C60 ([1]; listed as C70 fullerene): crossreacted
carcinogenic effects [2]: lack of carcinogenic effects

Compound: [166Ho+3] [^166Ho^3−]
urinary clearance ([3]; IP, commencing as soon as 1 hour post-injection): rapid
^166Ho activity excreted ([3]; after 24 hours): essentially all

inhibition of antibody binding to 1-RSA (ELISA inhibition) [1]: No inhibition
Compound: RSA: rabbit serum albumin, control

inhibition of antibody binding to 1-RSA (ELISA inhibition) [1]: No inhibition
Compound: TG: unsubstituted bovine thyroglobulin, carrier protein
precipitation in double diffusion in agar ([4]; TG solution diluted 5-fold): a line of precipitation was seen
precipitation in double diffusion in agar ([4]; serum of mice immunized with 1-TG): no visible precipitate
